Values after ≈ are worked out from the molar mass of the structure shown.
Tests used:
[1] = tested on: Gaffkya tetragena (Fac.Phie); assay: bacteriostatic activity, dilution method in nutritive broth; assay type: cell-based; conditions: read-out: Minimal bacteriostatic concentration
[2] = tested on: Mycobacterium smegmatis - ATCC 607; assay: as above; assay type: cell-based; conditions: Mycolicibacterium smegmatis, ATCC607, read-out: Minimal bacteriostatic concentration
[3] = tested on: Salmonella typhimurium (Institut Pasteur); assay: as above; assay type: cell-based; conditions: Salmonella enterica, read-out: Minimal bacteriostatic concentration
[4] = tested on: Staphylococcus aureus strain Launoy 1; assay: as above; assay type: cell-based; conditions: LAUNOY1, strain Launoy 1 (tetracycline, streptomycin, chloramphenicol and penicillin resistant), read-out: Minimal bacteriostatic concentration
Proteus X 19 = assay: as above; assay type: cell-based; conditions: read-out: Minimal bacteriostatic concentration
[5] = tested on: Pseudomonas aeruginosa (Bass strain - Institut Pasteur); assay: as above; assay type: cell-based; conditions: read-out: Minimal bacteriostatic concentration
solubility = assay type: physicochemical
[6] = tested on: Staphylococcus aureus strain 662 R; assay: bacteriostatic activity, dilution method in nutritive broth; assay type: cell-based; conditions: read-out: Minimal bacteriostatic concentration
[7] = tested on: Staphylococcus aureus strain 3486 R; assay: as above; assay type: cell-based; conditions: read-out: Minimal bacteriostatic concentration
Bacillus mycoides = assay: as above; assay type: cell-based; conditions: read-out: Minimal bacteriostatic concentration
[8] = tested on: Klebsiella pneumoniae - ATCC 10,031; assay: as above; assay type: cell-based; conditions: ATCC10, read-out: Minimal bacteriostatic concentration
[9] = tested on: Salmonella schottmuelleri (paratyphi B) (Fougenc, Institut Pasteur); assay: as above; assay type: cell-based; conditions: read-out: Minimal bacteriostatic concentration
[10] = tested on: Salmonella paratyphi A (Lacasse, Institut Pasteur); assay: as above; assay type: cell-based; conditions: Salmonella enterica, read-out: Minimal bacteriostatic concentration
[11] = tested on: Staphylococcus aureus strain B3; assay: as above; assay type: cell-based; conditions: B3, read-out: Minimal bacteriostatic concentration
[12] = tested on: Brucella bronchiseptica (CN 387 - Wellcome Institute); assay: microbe, parasite or virus in culture; assay type: cell-based; conditions: Bordetella bronchiseptica, read-out: Minimal bacteriostatic concentration
[13] = tested on: Staphylococcus aureus strain Launoy 2; assay: bacteriostatic activity, dilution method in nutritive broth; assay type: cell-based; conditions: LAUNOY2, strain Launoy 2 (tetracycline, streptomycin and penicillin resistant), read-out: Minimal bacteriostatic concentration
[14] = tested on: Corynebacterium pseudodiphtericum (Fac.Phie); assay: as above; assay type: cell-based; conditions: read-out: Minimal bacteriostatic concentration
[15] = tested on: Serratia marcescens (A. 476,Lausanne); assay: as above; assay type: cell-based; conditions: read-out: Minimal bacteriostatic concentration
lymphosarcoma = assay: utility in treating certain tumours; assay type: in vivo, human
Klebsiella pneumoniae = assay: turbidimetric estimation of activity by comparison with a 9865 RP sample of known activity; assay type: cell-based; conditions: unit = smallest quantity in 1 cc. of medium that inhibits growth of Klebsiella pneumoniae
Source text: The following non-limitative Examples illustrate the invention. […] This activity is expressed in units (u) per mg. for solid products and in units per cc. for solution. (The unit is defined as the smallest quantity of product which, dissolved in 1 cc. of an appropriate medium, inhibits the growth of Klebsiella pneumoniae under the conditions in question).

[16] = tested on: Staphylococcus aureus strain 1142 R; assay: bacteriostatic activity, dilution method in nutritive broth; assay type: cell-based; conditions: read-out: Minimal bacteriostatic concentration
[17] = tested on: Bacillus subtilis (strain ZO 5 A, Fac. Phie); assay: as above; assay type: cell-based; conditions: read-out: Minimal bacteriostatic concentration
[18] = tested on: Streptococcus faecalis ATCC 9790; assay: as above; assay type: cell-based; conditions: Enterococcus faecalis, ATCC9790, read-out: Minimal bacteriostatic concentration
[19] = tested on: Escherichia coli - ATCC 9637; assay: as above; assay type: cell-based; conditions: ATCC9637, read-out: Minimal bacteriostatic concentration
Source text: For each organism, the lowest concentration of substance has been determined which, under the defined condition, prevents all visible development in an appropriate nutritive broth. The results of various determinations are shown in Table VI, wherein the minimal bacteriostatic concentrations are expressed as micrograms of substance per cubic centimeter of experimental medium.

[20] = clinical safety of daunorubicin: heart; assay type: in vivo; conditions: human treatment
[21] = acute toxicity in the mouse; conditions: in vivo, sc
[22] = tested on: Bacillus megatherium (NRRL B 1125); assay: bacteriostatic activity, dilution method in nutritive broth; assay type: cell-based; conditions: read-out: Minimal bacteriostatic concentration
[23] = tested on: Staphylococcus aureus actinomycin resistant strain; assay: as above; assay type: cell-based; conditions: read-out: Minimal bacteriostatic concentration
[24] = tested on: Pasteurella multocida (A. 125 - Institut Pasteur); assay: as above; assay type: cell-based; conditions: read-out: Minimal bacteriostatic concentration

COc1cccc2c1C(=O)c1c(O)c3c(c(O)c1C2=O)C[C@@](O)(C(C)=O)C[C@@H]3O[C@H]1C[C@H](N)[C@H](O)[C@H](C)O1 [13057 RP daunorubicin, daunorubicin]
MIC [1]: 6.7 mg/L (≈ 12.7 µM)
MIC [2]: 1.2 mg/L (≈ 2.27 µM)
MIC [3]: 1000 mg/L (≈ 1900 µM)
MIC [4]: 7.1 mg/L (≈ 13.5 µM)
MIC (Proteus X 19): 62 mg/L (≈ 118 µM)
MIC [5]: 1000 mg/L (≈ 1900 µM)
solubility in alcohols (solubility; alcohols): soluble
solubility in benzene (solubility; benzene): practically insoluble
solubility in chloroform (solubility; chloroform): soluble
solubility in diethyl ether (solubility; diethyl ether): practically insoluble
solubility in ketones (solubility; ketones): very slighly soluble
solubility in water (solubility; water): very slighly soluble
MIC [6]: 6.3 mg/L (≈ 11.9 µM)
MIC [7]: 5.2 mg/L (≈ 9.86 µM)
MIC (Bacillus mycoides): 1.8 mg/L (≈ 3.41 µM)
MIC [8]: 8.9 mg/L (≈ 16.9 µM)
MIC [9]: 1000 mg/L (≈ 1900 µM)
MIC [10]: 16 mg/L (≈ 30.3 µM)
MIC [11]: 5.2 mg/L (≈ 9.86 µM)
MIC [12]: 62 mg/L (≈ 118 µM)
MIC [13]: 4.8 mg/L (≈ 9.1 µM)
MIC [14]: 1.7 mg/L (≈ 3.22 µM)
MIC [15]: 120 mg/L (≈ 227 µM)
utility in treating tumours (lymphosarcoma): proved to be of utility
activity (Klebsiella pneumoniae): 160 μ/mg.
MIC [16]: 2.1 mg/L (≈ 3.98 µM)
MIC [17]: 1.5 mg/L (≈ 2.84 µM)
MIC [18]: 30 mg/L (≈ 56.9 µM)
MIC [19]: 500 mg/L (≈ 948 µM)
cardiac complications [20]: sometimes accompanied by cardiac complications
LD50 [21]: 47 mg/kg
MIC [22]: 1.3 mg/L (≈ 2.46 µM)
MIC [23]: 5.8 mg/L (≈ 11 µM)
MIC [24]: 1.8 mg/L (≈ 3.41 µM)

Source: patent US3989598A (priority 1962, dated 1976)
